US10273220B2, “Derivative of Inula lineariifolia lactone A” (SHANXI ZHENDONG LEADING BIOTECHNOLOGY CO., LTD., priority 2015, dated 2019)
Structures can show the parent of a compound that is named as a salt.

Legend:
[1] = tested on: experimental autoimmune encephalomyelitis (EAE) model; experiment: Pharmacodynamics on EAE model (MOG 35-55 induced), EAE score and H&E/LFB staining of cervical spinal cord; type: in vivo, C57BL/6 mice; settings: for incidence of EAE: intragastric administration (FIG. 5, FIG. 6)
[2] = tested on: Sprague Dawley rats; experiment: 7-day repeated intragastric toxicity in rats; type: in vivo; settings: intragastrically daily at 75, 150, 300 mg/kg for 7 consecutive days, 3 males and 3 females per group
Method: Sprague Dawley rats, each group having 3 males and 3 females were administrated intragastrically daily at 75, 150, 300 mg/kg respectively for 7 consecutive days.

[3] = tested on: Mice; experiment: Single-dose toxicity in mice; type: in vivo; settings: for deaths: three males and three females
Method: Mice were divided into four groups for each having three males and three females and treated by compound 1 at a single-dose of 200, 600, 1800 and 5400 mg/kg, respectively.

[4] = tested on: experimental autoimmune encephalomyelitis (EAE) model; settings: mice; cited from earlier work
[5] = Bioavailability by oral administration; type: in vivo
[6] = crystal type A, 15 mg/kg once daily oral gavage, vs EAE model group
[7] = 30 mg/kg/day intragastrically, vs EAE model group

CC(=O)O[C@H]1C[C@H](OC(C)=O)[C@]2(C)[C@@H]1[C@H](C)C[C@@H]1OC(=O)[C@H](CN(C)C)[C@H]1[C@@H]2OC(C)=O [Compound IV, dimethylamine 4-O-acetyl inula lineariifolia lactone A fumarate]
onset of EAE ([1]; crystal type A in injection water, 15 mg/kg once daily oral gavage from day 0): delayed | course of EAE ([1]; crystal type A, 15 mg/kg once daily oral gavage): ameliorated | disease severity (EAE score) ([1]; crystal type A, 15 mg/kg once daily oral gavage from day 0): reduced | demyelination (LFB staining) ([1]; crystal type A, 15 mg/kg once daily oral gavage, vs EAE model control): significant lower | arrangement of the organization (blood vessel and tissue) [1, 6]: basically returned to normal condition | inflammatory cells (H&E analysis) [1, 6]: reducing | incidence of EAE [1]: significantly reduce | toxic reactions [2]: No obvious toxic reactions were observed

CC(=O)O[C@H]1C[C@H](OC(C)=O)[C@]2(C)[C@@H]1[C@H](C)C[C@@H]1OC(=O)[C@H](CN(C)C)[C@H]1[C@@H]2OC(C)=O [Compound I, dimethylamine 4-O-acetyl inula lineariifolia lactone A]
deaths ([3]; single dose 1800 mg/kg): One female mouse died | deaths ([3]; single dose 5400 mg/kg): Five mice except one male mouse died | toxic reactions ([3]; single dose 200 and 600 mg/kg, three males and three females per group): No obvious toxic reactions were observed | course of EAE ([1]; 30 mg/kg): ameliorated | disease severity (EAE score) ([1]; 30 mg/kg/day intragastrically, from day 0 of immunization, 30 days): reduced | onset of EAE ([1]; 30 mg/kg/day intragastrically, from day 0 of immunization, 30 days, in 0.5% CMC-Na): delayed | arrangement of the organization (blood vessel and tissue) [1, 7]: basically returned to normal condition | demyelination (LFB staining) [1, 7]: significantly reduced | inflammatory cells (H&E analysis) [1, 7]: reduced | incidence of EAE [1]: significantly reduce

C=C1C(=O)O[C@H]2C[C@@H](C)[C@@H]3[C@@H](OC(C)=O)C[C@H](O)[C@@]3(C)[C@@H](OC(C)=O)[C@H]12 [Inula lineariifolia lactone A]
therapeutic effect on EAE model [4]: good therapeutic effect | bioavailability by oral administration [5]: low
